Experimental data published in PubChem BioAssay (NCI).
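1) Cells in 96-well plates. 2) Compound, 48 h, 5 concentrations. 3) Linear interpolation between surrounding doses. 4) Unreached endpoint = highest concentration. GI50 = concentration required for 50% inhibition of growth. TGI: total growth inhibition.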

Tests used:
Test in all cases: DTP human tumour cell line panel, 48 h
HCT-116 colon = test system: HCT-116 colon
UACC-257 melanoma = test system: UACC-257 melanoma
PC-3 prostate = test system: PC-3 prostate
U251 CNS = test system: U251 CNS
EKVX NSCLC = test system: EKVX NSCLC
NCI-H522 lung = test system: NCI-H522 lung
HCC-2998 colon = test system: HCC-2998 colon
SF-295 CNS = test system: SF-295 CNS
NCI-H226 lung = test system: NCI-H226 lung
NCI-H460 lung = test system: NCI-H460 lung

Compound | GI50 (HCT-116 colon) | TGI (HCT-116 colon) | GI50 (UACC-257 melanoma) | TGI (UACC-257 melanoma) | GI50 (PC-3 prostate) | TGI (PC-3 prostate) | GI50 (U251 CNS) | TGI (U251 CNS) | GI50 (EKVX NSCLC) | TGI (EKVX NSCLC) | GI50 (NCI-H522 lung) | TGI (NCI-H522 lung) | GI50 (HCC-2998 colon) | TGI (HCC-2998 colon) | GI50 (SF-295 CNS) | TGI (SF-295 CNS) | GI50 (NCI-H226 lung) | TGI (NCI-H226 lung) | GI50 (NCI-H460 lung) | TGI (NCI-H460 lung)
CCN(CCCN(C)C)Cc1cc(I)cc(C)c1O | 14.6 µM | 32 µM | 16.3 µM | 32.5 µM | 21.5 µM | 65.8 µM | 21.2 µM | 43.6 µM | 26.5 µM | > 100 µM | 18.7 µM | 36.4 µM | 16.1 µM | 32.2 µM | 15.9 µM | 31.9 µM | 38.8 µM | > 100 µM | 16.4 µM | 38 µM
O=C(Nc1ccc2[nH]nc(-c3ccncc3)c2c1)[C@@H]1CCN(CC(=O)N2CCN(c3ccc(-c4ncccn4)cc3)CC2)C1 | 0.0783 µM | > 44.6 µM |  |  | 13.7 µM | > 100 µM | 0.613 µM | 18.9 µM |  |  | 7.27 µM | > 100 µM | 0.241 µM | > 100 µM | > 100 µM | > 100 µM | > 100 µM | > 100 µM | > 100 µM | > 100 µM
CC1=CC(=O)C2=C(C)CCC3C(C)C(=O)OC3C12 (stereo not drawn) |  | > 100 µM |  | > 100 µM |  | > 100 µM |  | > 100 µM |  | > 100 µM |  | > 100 µM |  | > 100 µM |  | > 100 µM |  | > 100 µM |  | > 100 µM
CC(C)C1=CC(=O)C(C)(C2C(O)CC3(C)C4CC=C5C(CCC(OC6OC(CO)C(O)C(O)C6OC6OC(C)C(O)C(O)C6O)C5(C)C)C4(C)C(=O)CC23C)O1 (stereo not drawn) |  | > 100 µM |  | > 100 µM |  | > 100 µM |  | > 100 µM |  | > 100 µM |  | > 100 µM |  | > 100 µM |  | > 100 µM |  | > 100 µM |  | > 100 µM
O=c1[nH]c2ccccc2c2ccccc12 | > 100 µM | > 100 µM |  |  | > 100 µM | > 100 µM | > 100 µM | > 100 µM | 92.9 µM | > 100 µM | > 100 µM | > 100 µM | > 100 µM | > 100 µM | > 100 µM | > 100 µM | > 100 µM | > 100 µM | 70.1 µM | > 100 µM
CC(N)C(Cc1ccc(Cl)cc1)c1ccc(Cl)cc1 (stereo not drawn) | 4.05 µM | 16.4 µM |  |  | 12.8 µM | 26.3 µM | 12.3 µM | 25.9 µM | 9.22 µM | 22.4 µM | 11.4 µM | 26.1 µM | 1.96 µM | 4.11 µM | 10.4 µM | 23.6 µM | 17.5 µM | 39.3 µM | 5.55 µM | 18.5 µM
CCCCCCCCCCCCOC1C(CNC(=O)C2OC3OC(C)(C)OC3C2NC(=O)Nc2ccc(CC(=O)OC)cc2)OC2OC(C)(C)OC21 (stereo not drawn) | 12.5 µM | > 100 µM | > 100 µM | > 100 µM | > 100 µM | > 100 µM | 18.3 µM | > 100 µM | > 100 µM | > 100 µM | > 100 µM | > 100 µM | > 100 µM | > 100 µM | > 34.8 µM | > 49.5 µM | > 100 µM | > 100 µM | > 100 µM | > 100 µM
Cc1cccc(N(C)C(=O)[C@@H]2[C@H](O)CCN2c2nc(C)cc(C(F)(F)F)c2C#N)c1 | 15.4 µM | 29 µM | 28.3 µM | > 100 µM | 15.4 µM | 67.2 µM | 28.8 µM | > 100 µM | 24.6 µM | > 100 µM | 10.7 µM | 32 µM | 22.7 µM | 88.1 µM | 20.3 µM | 54.2 µM | 23.9 µM | > 100 µM | 31.8 µM | > 100 µM
O=Nc1ccc(O)c(=O)cc1 | 0.961 µM | 3.49 µM | 2.26 µM | 7.86 µM | 3.77 µM | 16.2 µM | 3.08 µM | 11.6 µM | 6.93 µM | 23.4 µM | 0.141 µM | 0.524 µM | 3.35 µM | 13.5 µM | 26.1 µM | 79.2 µM | 2.5 µM | 8.64 µM | 4.76 µM | 23.5 µM
O=S(=O)(NCCCNc1nccc(-c2c(-c3ccc(O)cc3)nc3sccn23)n1)c1ccc(F)cc1 | 1.25 µM | 4.77 µM | 0.134 µM | 2.36 µM | 3.11 µM | 29 µM | 2.92 µM | 12.4 µM | 2.91 µM | 9.02 µM | 1.83 µM | 6.27 µM | 3.37 µM | 6.93 µM | 1.99 µM | 4.56 µM | 2.15 µM | 10.1 µM | 2.37 µM | 7.18 µM
COc1ccc2c(c1)/C(=C\c1c(-c3cc(OC)ccc3OC)nc3sc(C)cn13)C(=O)N2C | 22.3 µM | > 100 µM | 23.5 µM | 45.9 µM | 16.3 µM | 93.8 µM | 39.7 µM | > 100 µM | 61.1 µM | > 100 µM | 29.6 µM | > 100 µM | 59.7 µM | > 100 µM | 13.1 µM | 35.8 µM | 30.9 µM | > 100 µM | 24.9 µM | 93.9 µM
Cc1nc2ccc(Nc3nc(Cl)nc(N4CCOCC4)n3)cc2n1Cc1ccccc1 | 5.16 µM | 89 µM | 5.93 µM | > 100 µM | 10 µM | > 100 µM |  |  |  |  | 2.98 µM | 20.8 µM | 2.05 µM | 3.85 µM | 11.9 µM | 82 µM | 7.88 µM | 48.9 µM | 11.9 µM | > 100 µM
CC(=O)Nc1ccc2c(c1)C(c1ccccc1Cl)=Nc1c(n[nH]c1C)N2 | 2.49 µM | > 25 µM | > 25 µM | > 25 µM | > 25 µM | > 25 µM | 1.1 µM | > 25 µM |  |  | > 15.9 µM | > 25 µM | 16.7 µM | > 25 µM | 8.22 µM | > 25 µM | 0.57 µM | > 17.7 µM | 1.85 µM | > 25 µM
O=C(Oc1cccc2cccnc12)c1cc2c(cc1Cl)SC(N(c1ccc(F)cc1)S(=O)(=O)c1ccc(Br)s1)=NS2(=O)=O | 19.3 µM | 55 µM |  |  | 21.5 µM | 73.9 µM | 26 µM | 95.6 µM | 22.5 µM | 64.1 µM | 19.6 µM | 48.3 µM | 43.5 µM | > 100 µM | 22.4 µM | 69.7 µM | 66.4 µM | > 100 µM | 29.1 µM | > 100 µM
CCSCC1CC(O)(c2ccccc2)CC(c2ccc(F)cc2)O1 (stereo not drawn) | 1.66 µM | 3.02 µM | 2.27 µM | 5.26 µM | 1.82 µM | 4.89 µM | 1.63 µM | 3.3 µM | 2.13 µM | 6.04 µM | 1.94 µM | 5.88 µM | 2.56 µM | 7.11 µM | 1.9 µM | 3.92 µM |  |  | 2.24 µM | 4.63 µM
Cc1nc([P+](c2ccccc2)(c2ccccc2)c2ccccc2)c(Sc2sc(-c3ccccc3)nc2[P+](c2ccccc2)(c2ccccc2)c2ccccc2)o1 | 0.896 µM | 2.94 µM | 2 µM | 8.81 µM | 1.04 µM | 2.72 µM | 0.344 µM | 4.03 µM | 1.1 µM | 5.64 µM | 1.43 µM | 6.15 µM | 2 µM | 6.22 µM | 2.24 µM | 6.77 µM |  |  | 1.13 µM | 2.8 µM
Fc1cc2[nH]ncc2c2c3c(c(-c4cn[nH]c4C(F)(F)F)nc12)CCCC3 | 0.923 µM | > 100 µM |  |  | 1.86 µM | > 100 µM | 2.57 µM | > 100 µM | 1.84 µM | 5.3 µM | 1.62 µM | 9.4 µM | 1.64 µM | 4.99 µM | 2.15 µM | 10.3 µM | 2.64 µM | > 100 µM | 1.16 µM | 9.92 µM
CCN1C/C(=C\c2cc(OC)c(OC)cc2OC)C(=O)/C(=C/c2cc(OC)c(OC)cc2OC)C1 | 1.84 µM | 3.84 µM | 4.32 µM | 28 µM | 4.25 µM | > 100 µM | 3.08 µM | 14.3 µM | 3.5 µM | 30.6 µM | 3.05 µM | 12 µM | 1.74 µM | 3.33 µM | 2.3 µM | 4.89 µM | 2.59 µM | 5.59 µM |  | 
c1cc(NNc2cccc(-c3nn[nH]n3)c2)cc(-c2nn[nH]n2)c1 |  | > 100 µM |  | > 100 µM |  | > 100 µM |  | > 100 µM |  | > 100 µM |  | > 100 µM |  |  |  | > 100 µM |  | > 100 µM |  | > 100 µM
c1ccc2sc(SCCSc3nc4ccccc4s3)nc2c1 |  | > 100 µM |  | > 100 µM |  | > 100 µM |  | > 100 µM |  | > 100 µM |  | > 100 µM |  | > 100 µM |  | > 100 µM |  |  |  | > 100 µM
COc1ccc(/C=C(/C#N)C(N)=O)c(OC)c1 |  | > 100 µM |  | > 100 µM |  | > 100 µM |  | > 100 µM |  | > 100 µM |  | > 100 µM |  |  |  | > 100 µM |  | > 100 µM |  | > 100 µM
